Experiments:
[1] = Tolerability of meglumine in the drinking water (water consumption, adverse effects); type: in vivo; settings: 37.5 mM meglumine in drinking water ad lib; K6/ODC transgenic mice and normal littermates
Description: (§1) Upon weaning, K6/ODC transgenic mice and their normal littermates were divided into two treatment groups where they received ad lib either tap water or water with 37.5 mM meglumine (Sigma Chemical Co.) in their drinking water. Meglumine-containing water was changed twice a week. […] Mice were monitored for tumor development. Tumor growth was assessed morphometrically using calipers, and tumor volumes were calculated according to the formula V (mm^3)=π/6×A×B^2 (A is larger diameter, B is the smaller diameter) (Buzzai et al.).

[2] = tested on: skin tumors in DMBA-initiated K6/ODC transgenic mice; test: Skin tumor formation and growth in DMBA-initiated K6/ODC transgenic mice, meglumine in drinking water; type: in vivo
Description: K6/ODC transgenic mice are highly susceptible to developing skin tumors following a single treatment with a low subthreshold dose of the carcinogen DMBA. The effect of oral administration of meglumine in the drinking water was tested on the formation and growth of skin tumors in DMBA-initiated K6/ODC transgenic mice and their normal littermates. Four day old K6/ODC transgenic mice and their normal littermates were initiated with a single topical application of 300 nmol DMBA in 50 μl acetone.
as §1

THP-1 cells = test: LPS-induced cytokine levels in media of THP-1 cells (Bio-Plex immunoassay); type: cell-based, human; settings: 25 ng LPS, 40 or 80 mM meglumine hydrochloride, 24 hours
Description: THP-1 cells (human acute monocytic leukemia) were grown in a 24-well polystyrene plate in 1 ml of RPMI media with 10% fetal bovine serum. Cells were treated with 25 ng of lipopolysaccharide (LPS) (Sigma) in the presence or absence of 40 or 80 mM meglumine hydrochloride. After 24 hours, the media was centrifuged to remove the cells and analyzed for cytokine content using a Bio-Plex® immunoassay (Bio-Rad). The LPS induced levels of IL-17, IL-8, MIP-1 alpha, MIP-1 beta, IL-9 and IP-10 were decreased in the presence of meglumine (FIG. 5).

skin tumors = settings: DFMO given during the promotion phase; cited from earlier work
[3] = K6/ODC transgenic mice, compared to control water, monitored 4 months

For `CNC[C@H](O)[C@@H](O)[C@H](O)[C@H](O)CO` [meglumine, (2R,3R,4R,5S)-6-methylaminohexane-1,2,3,4,5-pentol], the “adverse effects (weight loss, lethargy, ruffed fur, diarrhea, or general malaise)” value [1] was “nor did it have any adverse effects”, the consumption of water [1] was “did not affect” and the “age at which all mice had skin tumors” value ([2]; K6/ODC transgenic mice (6/6), 37.5 mM meglumine in drinking water, control (5/5): 50 days) was 73 days of age. For the same molecule, the “age at which skin tumors first developed” value ([2]; K6/ODC transgenic mice, 37.5 mM meglumine in drinking water, control tap water: 45 days) was 60 days of age, the “numbers of skin tumors” value ([2]; K6/ODC transgenic mice, at any given age, compared to control tap water, monitored 4 months) was “fewer” and the “cumulative tumor burden (average total tumor volume per mouse)” value [2, 3] was “lower”. For the same molecule, the tumor growth [2, 3] was “slowed” and the “skin tumor development in normal littermates” value ([2]; normal littermates n=10, with or without meglumine-supplemented water, single subthreshold dose of DMBA) was “no normal littermates”.

In the case of `CNC[C@H](O)[C@@H](O)[C@H](O)[C@H](O)CO.Cl` [meglumine hydrochloride], the “LPS induced level of IL-8” value (THP-1 cells) is reported as “decreased”, the “LPS induced level of IL-9” value (THP-1 cells) is reported as “decreased” and the “LPS induced level of IL-17” value (THP-1 cells) is reported as “decreased”. The “LPS induced level of IP-10” value (THP-1 cells) was “decreased”, the “LPS induced level of MIP-1 alpha” value (THP-1 cells) was “decreased” and the “LPS induced level of MIP-1 beta” value (THP-1 cells) was “decreased”.

In the case of `NCCC[C@](N)(C(=O)O)C(F)F` [DFMO, α-difluoromethylornithine], the “development of skin tumors” value (skin tumors) is given as “inhibits”.

Source: patent US20190160084A1, “METHODS FOR THE TREATMENT OF CANCER USING MEGLUMINE” (Dynamis Pharmaceuticals, Inc., priority 2016, published 2019)
